Bounds are passed on as bounds.

This experiment concerns E. coli. In words: Full scale trial of peracetic acid disinfection at a wastewater treatment plant (E. coli by IDEXX Colisure method). On the set-up: species or system Escherichia coli. The protocol:
A full scale trial of peracetic acid (15% PAA:23% hydrogen peroxide) disinfection was performed at a wastewater treatment plant in Tennessee, USA. The wastewater contained a high level of colored, aromatic molecules discharged from industrial sources involved in the processing of cotton seeds and other sources of lignin and bio-based polymers. The water quality, and as a result the peracetic acid (PAA) demand, was heavily dependent upon the cyclic discharge rates from these industrial sources. Thus, the PAA efficacy in reducing bacterial concentrations within the wastewater was not only dependent upon the overall flow rate of the WWTP, but also upon the time-dependent water quality. The time-dependent water quality demand on PAA at the treatment plant required the inclusion of a PAA feed-forward dosing scheme to insure that the proper dosing of PAA needed to achieve the target microbial reduction was maintained.
Initial testing consisted of collecting continuous, on-line data for four wastewater quality parameters: color, chemical oxygen demand (COD), oxidation/reduction potential (ORP) and UV transmittance (UVT) at 254 nm. Peracetic acid was measured in situ via the Prominent Dulcotest CTE sensor. The sensor was a membrane-capped amperometric, two electrode sensor for the measurement of PAA in aqueous solution. […] PAA contained in the sample water diffused through the membrane, causing a potential difference between electrodes. The primary signal was converted by the amplifier electronics of the sensor into a 4-20 mA, temperature corrected, output signal, which was optimally controlled via the DULCOMETER diaLog DACa controller. Wastewater color was measured on-line utilizing a ChemScan UV-3151 Series Analyzer with a flow-through sensor. The analyzer drew a sample of wastewater from the untreated side of the disinfection channel, representative of the influent wastewater, to the main unit, which was located in the control house. Wastewater COD and % UVT (% ultraviolet transmittance at 254 nm) were measured on-line using a submersible YSI CarboVis model 701 unit. E. coli analysis were performed by a third-party laboratory, using the IDEXX Colisure method.
The data for each quality parameter then was correlated to PAA demand, accounting for wastewater flow rate. E. coli concentrations were measured at the inflow to the disinfection channel, at the mid-point of the disinfection channel and at the outflow.
Subsequent testing was performed with wastewater color as the water quality parameter for feed-forward control of the PAA dose (PAAdemand), coupled with flow pacing.
At least three cycles of water quality (minimum to maximum wastewater color) were tested with flow rates ranging from 50 to 130 MGD. Sixty three E. coli concentrations were measured during this period. […]

Setting [1] is: effluent after PAA dosing with color feed-forward control plus flow pacing, flow 50 to 130 MGD, power-outage measurement eliminated.

With `CC(=O)OO` [PAA, peracetic acid], for the setting “at demand neutral performance, this wastewater”, the “PAAset point to achieve the desired E. coli reduction” value is 7 ppm. The “E. coli concentration (all but one of sixty three measurements)” value (below the permitted daily maximum, the exception occurred in a power outage with no PAA dosed) is listed as below 487 cfu/100 mL. Under setting [1], the “E. coli arithmetic mean concentration” value amounted to 18 cfu/100 mL and the “E. coli geomean concentration” value is given as 12 cfu/100 mL.

Values taken from patent US20170313604A1, “Wastewater Treatment Method” (PeroxyChem LLC, priority 2016, published 2017).
